Legend:
rat P2X7 = rat P2X7 (Rattus norvegicus (Rat), UniProt Q64663); test: Rat P2X7 functional assay (Ca2+ influx, Fluo-4, FDSS); assay type: cell-based; details: HEK293 cells stably expressing rat P2X7; BzATP final 10 microM; 7-point dose-response; read-out: Antagonistic activities with respect to the rat P2X7 receptor (IC50)
Summary of the method: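 HEK293 cells stably expressing rat P2X7 (5,000/well, plated 24 h before) loaded with Fluo-4; compounds preincubated 10 min at room temperature, then Ca2+ rise after 10 microM BzATP (final) read on FDSS (480/540 nm). IC50 from 7-point curves, duplicate wells.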

human P2X7 = human P2X7 (Homo sapiens (Human), UniProt Q99572); test: Human P2X7 functional assay (Ca2+ influx, Fluo-4, FDSS); assay type: cell-based; details: antagonistic activity with respect to the human P2X7 receptor; BzATP final concentration 80 microM
Sequence of human P2X7 (Q99572 whole entry): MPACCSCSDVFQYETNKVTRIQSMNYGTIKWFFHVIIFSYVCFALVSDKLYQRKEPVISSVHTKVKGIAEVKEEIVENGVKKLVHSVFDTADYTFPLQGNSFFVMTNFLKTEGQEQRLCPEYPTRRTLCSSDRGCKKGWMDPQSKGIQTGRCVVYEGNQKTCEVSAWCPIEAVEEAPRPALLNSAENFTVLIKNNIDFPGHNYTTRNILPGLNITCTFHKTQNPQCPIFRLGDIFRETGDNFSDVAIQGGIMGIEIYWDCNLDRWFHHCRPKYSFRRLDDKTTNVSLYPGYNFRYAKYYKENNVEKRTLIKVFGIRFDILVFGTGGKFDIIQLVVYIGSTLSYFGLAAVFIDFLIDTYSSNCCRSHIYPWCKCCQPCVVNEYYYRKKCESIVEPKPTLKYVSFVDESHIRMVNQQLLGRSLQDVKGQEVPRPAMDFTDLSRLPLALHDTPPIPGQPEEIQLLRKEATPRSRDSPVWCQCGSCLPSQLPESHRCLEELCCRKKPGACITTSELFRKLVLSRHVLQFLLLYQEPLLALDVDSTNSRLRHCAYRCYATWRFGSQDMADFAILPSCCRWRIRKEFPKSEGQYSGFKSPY
Summary of the method: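 HEK293 cells stably expressing C-terminally FLAG-tagged human P2X7, loaded with Fluo-4. Compounds were preincubated for 10 min at room temperature, then 80 μM BzATP (final) was added and Ca2+ fluorescence read at 540 nm (480 nm excitation) by FDSS. IC50 values come from 7-point curves, duplicate wells.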

Sequence of rat P2X7 (Q64663 whole entry): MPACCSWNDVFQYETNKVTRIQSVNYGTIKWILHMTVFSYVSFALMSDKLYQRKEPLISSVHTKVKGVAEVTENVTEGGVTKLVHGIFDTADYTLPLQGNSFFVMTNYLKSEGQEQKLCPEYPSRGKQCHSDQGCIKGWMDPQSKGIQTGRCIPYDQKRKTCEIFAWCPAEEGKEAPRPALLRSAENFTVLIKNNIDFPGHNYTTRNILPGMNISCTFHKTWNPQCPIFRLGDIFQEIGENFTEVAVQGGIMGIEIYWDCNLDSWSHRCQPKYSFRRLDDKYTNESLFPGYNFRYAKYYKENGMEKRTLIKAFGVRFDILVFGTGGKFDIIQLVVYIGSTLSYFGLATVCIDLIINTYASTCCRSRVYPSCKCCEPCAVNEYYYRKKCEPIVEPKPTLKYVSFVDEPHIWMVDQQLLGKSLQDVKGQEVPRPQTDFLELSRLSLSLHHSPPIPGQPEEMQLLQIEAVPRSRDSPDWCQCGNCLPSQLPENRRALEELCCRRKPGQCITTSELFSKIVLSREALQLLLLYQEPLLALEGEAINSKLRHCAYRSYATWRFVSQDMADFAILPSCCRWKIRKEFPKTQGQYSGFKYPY

SMILES | IC50 (rat P2X7) | IC50 (human P2X7)
CO[C@H]1CC[C@](F)(C(=O)NCc2c(Cl)cc(Cl)cc2CO)c2cccnc21 [Example 333, (5R,8S)-N-(2,4-dichloro-6-(hydroxymethyl)benzyl)-5-fluoro-8-methoxy-5,6,7,8-tetrahydroquinoline-5-carboxamide] | < 1000 nM | 101 to 300 nM
CO[C@@H]1CC[C@@](F)(C(=O)NCc2c(Cl)cc(Cl)cc2CO)c2cccnc21 [Example 334, (5S,8R)-N-(2,4-dichloro-6-(hydroxymethyl)benzyl)-5-fluoro-8-methoxy-5,6,7,8-tetrahydroquinoline-5-carboxamide] | < 1000 nM | < 50 nM
CO[C@H]1CC[C@@](F)(C(=O)NCc2ccc(F)cc2Cl)c2cccnc21 [Example 337, (5S,8S)-N-(2-chloro-4-fluorobenzyl)-5-fluoro-8-methoxy-5,6,7,8-tetrahydroquinoline-5-carboxamide] | < 1000 nM | < 50 nM
CO[C@H]1CC[C@@](F)(C(=O)NCc2ccc(C(F)(F)F)cc2Cl)c2cccnc21 [Example 338, (5S,8S)-N-(2-chloro-4-(trifluoromethyl)benzyl)-5-fluoro-8-methoxy-5,6,7,8-tetrahydroquinoline-5-carboxamide] | < 1000 nM | < 50 nM
CO[C@H]1CC[C@@](F)(C(=O)NCc2ccc(Cl)cc2F)c2cccnc21 [Example 340, (5S,8S)-N-(4-chloro-2-fluorobenzyl)-5-fluoro-8-methoxy-5,6,7,8-tetrahydroquinoline-5-carboxamide] | < 1000 nM | < 50 nM
CO[C@H]1CC[C@@](F)(C(=O)NCc2c(F)cc(F)cc2F)c2cccnc21 [Example 341, (5S,8S)-5-fluoro-8-methoxy-N-(2,4,6-trifluorobenzyl)-5,6,7,8-tetrahydroquinoline-5-carboxamide] | < 1000 nM | 50 to 100 nM
CO[C@H]1CC[C@@](F)(C(=O)NCc2ccc(F)cc2F)c2cccnc21 [Example 342, (5S,8S)-N-(2,4-difluorobenzyl)-5-fluoro-8-methoxy-5,6,7,8-tetrahydroquinoline-5-carboxamide] | < 1000 nM | 50 to 100 nM
O=C(NCc1c(Cl)cc(Cl)cc1CO)[C@]1(F)CC[C@H](OCCO)c2ncccc21 [Example 343, (5S,8S)-N-(2,4-dichloro-6-(hydroxymethyl)benzyl)-5-fluoro-8-(2-hydroxyethoxy)-5,6,7,8-tetrahydroquinoline-5-carboxamide] | < 1000 nM | < 50 nM
O=C(NCc1ccc(F)cc1Cl)[C@]1(F)CC[C@H](OCCO)c2ncccc21 [Example 344, (5S,8S)-N-(2-chloro-4-fluorobenzyl)-5-fluoro-8-(2-hydroxyethoxy)-5,6,7,8-tetrahydroquinoline-5-carboxamide] | < 1000 nM | < 50 nM
O=C(NCc1ccc(Cl)cc1F)[C@]1(F)CC[C@H](OCCO)c2ncccc21 [Example 346, (5S,8S)-N-(4-chloro-2-fluorobenzyl)-5-fluoro-8-(2-hydroxyethoxy)-5,6,7,8-tetrahydroquinoline-5-carboxamide] | < 1000 nM | < 50 nM
O=C(NCc1ccc(F)cc1F)[C@]1(F)CC[C@H](OCCO)c2ncccc21 [Example 347, (5S,8S)-N-(2,4-difluorobenzyl)-5-fluoro-8-(2-hydroxyethoxy)-5,6,7,8-tetrahydroquinoline-5-carboxamide] | < 1000 nM | 50 to 100 nM
O=C(NCc1ccc(Cl)cc1Cl)[C@]1(F)CC[C@H](OCC(O)CO)c2ncccc21 (stereo partly drawn) [Example 349, (5S,8S)—N-(2,4-dichlorobenzyl)-8-(2,3-dihydroxypropoxy)-5-fluoro-5,6,7,8-tetrahydroquinoline-5-carboxamide] | < 1000 nM | < 50 nM
O=C(NCc1ccc(Cl)cc1Cl)[C@]1(F)CCC(S(=O)(=O)CCO)c2ncccc21 (stereo partly drawn) [Example 351, (5S)-N-(2,4-clichlorebenzyl)-5-fluoro-8-((2-hydroxyethyl)sulfenyl)-5,6,7,8-letrahydroquineline-5-carboxamide] | < 1000 nM | < 50 nM
O=C(NCc1cccc(C(F)(F)F)c1Cl)[C@@]1(F)CC[C@H](F)c2ncccc21 [Example 352, (5R,8S)-N-(2-chloro-3-(trifluoromethyl)benzyl)-5,8-difluoro-5,6,7,8-tetrahydroquinoline-5-carboxamide] | < 1000 nM | < 50 nM

The next lines start with the values.

IC50 (rat P2X7) | IC50 (human P2X7) | SMILES
< 1000 nM | 101 to 300 nM | O=C(NCc1ccc(Cl)c(F)c1F)[C@]1(F)CC[C@@](O)(CO)c2ncccc21 [Example 322, (5S,8S)-N-(4-chloro-2,3-difluorobenzyl)-5-fluoro-8-hydroxy-8-(hydroxymethyl)-5,6,7,8-tetrahydroquinoline-5-carboxamide]
< 1000 nM | 101 to 300 nM | O=C(NCc1ccc(F)c(Cl)c1F)[C@]1(F)CC[C@@](O)(CO)c2ncccc21 [Example 323, (5S,8S)-N-(3-chloro-2,4-difluorobenzyl)-5-fluoro-8-hydroxy-8-(hydroxymethyl)-5,6,7,8-tetrahydroquinoline-5-carboxamide]
< 1000 nM | 50 to 100 nM | O=C(NCc1c(F)cc(Cl)cc1F)[C@]1(F)CC[C@@](O)(CO)c2ncccc21 [Example 324, (5S,8S)-N-(4-chloro-2,6-difluorobenzyl)-5-fluoro-8-hydroxy-8-(hydroxymethyl)-5,6,7,8-tetrahydroquinoline-5-carboxamide]
< 1000 nM | < 50 nM | C[C@@H](NC(=O)[C@]1(F)CC[C@@](O)(CO)c2ncccc21)c1ccc(Cl)cc1Cl [Example 326, (5S,8S)-N-((R)-1-(2,4-dichlorophenyl)ethyl)-5-fluoro-8-hydroxy-8-(hydroxymethyl)-5,6,7,8-tetrahydroquinoline-5-carboxamide]
< 1000 nM | < 50 nM | C[C@@H](NC(=O)[C@]1(F)CC[C@@](O)(CO)c2ncccc21)c1ccc(F)cc1Cl [Example 327, (5S,8S)-N-((R)-1-(2-chloro-4-fluorophenyl)ethyl)-5-fluoro-8-hydroxy-8-(hydroxymethyl)-5,6,7,8-tetrahydroquinoline-5-carboxamide]
< 1000 nM | 101 to 300 nM | C[C@@H](NC(=O)[C@]1(F)CC[C@](O)(CO)c2ncccc21)c1ccc(F)cc1Cl [Example 328, (5S,8R)-N-((R)-1-(2-chloro-4-fluorophenyl)ethyl)-5-fluoro-8-hydroxy-8-(hydroxymethyl)-5,6,7,8-tetrahydroquinoline-5-carboxamide]
< 1000 nM | 50 to 100 nM | O=C(NCc1ncc(Cl)cc1Cl)[C@]1(F)CC[C@@](O)(CO)c2ncccc21 [Example 329, (5S,8S)-N-((3,5-dichloropyridin-2-yl)methyl)-5-fluoro-8-hydroxy-8-(hydroxymethyl)-5,8,7,8-tetrahydroquinoline-5-carboxamide]
< 1000 nM | < 50 nM | CO[C@H]1CC[C@@](F)(C(=O)NCc2ccc(F)c(F)c2F)c2cccnc21 [Example 339, (5S,8S)-5-fluoro-8-methoxy-N-(2,3,4-trifluorobenzyl)-5,6,7,8-tetrahydroquinoline-5-carboxamide]
< 1000 nM | < 50 nM | O=C(NCc1ccc(F)c(F)c1F)[C@]1(F)CC[C@H](OCCO)c2ncccc21 [Example 345, (5S,8S)-5-fluoro-8-(2-hydroxyethoxy)-N-(2.3.4-trifluorobenzyl)-5,6,7,8-tetrahydroquinoline-5-carboxamide]

— patent publication US11077100B2, “Tetrahydroquinoline derivatives as P2X7 receptor antagonists” (RaQualia Pharma Inc., priority 2017, dated 2021)
